The source of these data is patent US4128541A, “Pentapeptide with morphine- like activity” (American Home Products Corporation, priority 1976, dated 1978).

Ends that are not written are not given here.

The subject of test [1] is rats. In words: rat-tail flick method of D'Amour and Smith (analgesia). It counts as in vivo. Conditions: intravenous (i.v.) injection, 5 mg/kg. On the technique in general: Thermal pain tests record how soon the animal reacts.
Test [2] relates to opiate receptors. As to the kind of experiment: binding to opiate receptors in vitro. Conditions: effect blocked by naloxone.
The test system of test [3] is guinea pig ileum. As to the kind of experiment: electrically-induced contraction of guinea pig ileum. Conditions: effect blocked by naloxone. The text has this:
Enkephalin, a natural opiate receptor agonist in brain, has been identified [see Hughes et al., Nature, 256, 577(1975)] as a mixture of two pentapeptides: H-Tyr-Gly-Gly-Phe-Met-OH (methionine-enkephalin) and H-Tyr-Gly-Gly-Phe-Leu-OH (leucine-enkephalin).

Test [4] concerns rats. In words: rat-tail flick method of D'Amour and Smith (analgesia). It counts as in vivo. Conditions: for Mean % Change ± SEM (latency, drug minus baseline) / Mean Latency ± SEM, Drug: injected into the lateral ventricle in Ringer's solution, 100 μg (morphine sulfate 10 μg). How it is done:
In this test method, which is a standard test for analgesia, a light beam is focused on the tip of the rat's tail, and the pain threshold of the animal is measured by the latency of the rat to remove his tail from the noxious heat source. When tested by the rat-tail flick method by intracerebroventricular injection, according to the procedure of Belluzzi et al., Nature, 260, 625 (1976), the pentapeptide H-Tyr-Gly-Gly-Phe-Ser-OHproduced the effects set forth in Table I.
*All drugs were dissolved in […] of Ringer's solution and injected into
the lateral ventricle through permanently-indwelling cannulae.
*Subcutaneous in saline solution.

In test [5] the test system is mouse vas deferens. Conditions: literature, Hughes et al.; cited from earlier work.
In test [6] the test system is guinea pig ileum. Conditions: literature, Hughes et al.; cited from earlier work.
In test [7] the test system is rats. Conditions: injection in the brain ventricle in rats; fully reversible by naloxone; Beluzzi et al.; cited from earlier work.
Test [8] relates to opiate receptor (3H-naloxone binding) in brain homogenates. Conditions: literature; cited from earlier work.
The mark [9] stands for this setting: rat-tail flick, 10 mg/kg subcutaneous in saline solution.

For the compound “YGGFS [H-Tyr-Gly-Gly-Phe-Ser-OH, L-Tyrosyl-Glycyl-Glycyl-L-Phenylalanyl-L-Serine]”, in test [1], the “analgesic activity (in words)” value is recorded as “no analgesic activity”. Besides, the “binding to opiate receptors in vitro (in words)” value in test [2] is on record as “weak binding”. In test [3], the “block of electrically-induced contraction of guinea pig ileum (in words)” value is listed as “blocks”. Further, the “pain threshold (in words)” value in test [4] (injection into the lateral brain ventricle, significant difference versus vehicle) is “increase in pain threshold”. For the same compound, in test [4] (setting [9]), the “Mean % Change ± SEM (latency)” value is on record as 26.16 ± 14.36% and the “Mean Latency ± SEM, Pentapeptide” value is listed as 5.15 ± 0.60. In test [4] (rat-tail flick), the “Mean % Change ± SEM (latency, drug minus baseline)” value amounted to 39.25% and the “Mean Latency ± SEM, Drug” value is 5.77. In addition, the “analgesic effect (in words)” value in test [4] (subcutaneous (s.c.) injection, 10 mg/kg in saline) is “weak analgesic effect”.
Consider “H-Tyr-Gly-Gly-Phe-Leu-OH [leucine-enkephalin]”, for which, in test [5], the “block of electrically evoked contractions of mouse vas deferens (in words)” value is on record as “mimic the ability of morphine to block”. Moreover, the “block of electrically evoked contractions of guinea pig ileum (in words)” value in test [6] is reported as “mimic the ability of morphine to block”. Also, in test [7], the “analgesia (in words)” value is reported as “profound analgesia”. In addition, the “inhibition of stereospecific receptor binding of 3H-naloxone (in words)” value in test [8] is “inhibit”.
Take `CN1CC[C@]23c4c5ccc(O)c4O[C@H]2[C@@H](O)C=C[C@H]3[C@H]1C5.O=S(=O)(O)O` [Morphine Sulfate]: in test [4] (rat-tail flick), the “Mean % Change ± SEM (latency, drug minus baseline)” value is listed as 65.4% and the “Mean Latency ± SEM, Drug” value came to 6.59.
On to `CSCC[C@H](NC(=O)[C@H](Cc1ccccc1)NC(=O)CNC(=O)CNC(=O)[C@@H](N)Cc1ccc(O)cc1)C(=O)O` [Methionine-Enkephalin, H-Tyr-Gly-Gly-Phe-Met-OH], for which the “block of electrically evoked contractions of mouse vas deferens (in words)” value in test [5] is “mimic the ability of morphine to block”. Also, in test [6], the “block of electrically evoked contractions of guinea pig ileum (in words)” value is “mimic the ability of morphine to block”. For the same compound, in test [7], the “analgesia (in words)” value is “profound analgesia”. Besides, the “inhibition of stereospecific receptor binding of 3H-naloxone (in words)” value in test [8] was “inhibit”. In test [4] (rat-tail flick), the “Mean % Change ± SEM (latency, drug minus baseline)” value is reported as 37.2% and the “Mean Latency ± SEM, Drug” value is 5.19.
